Assay results published in patent US12178791B2, “Haloallylamine sulfone derivative inhibitors of lysyl oxidases and uses thereof” (Syntara Limited, priority 2018, dated 2024).
Entries after “also recorded” stand apart in the source; their conditions may differ. Counter-ions that a name gives are not always drawn. Like-named read-outs stand apart in the source and are kept apart here.

Columns and labels:
[1] = target: T1, LOXL2 (Homo sapiens (Human), UniProt Q9Y4K0); assay: LOXL2 inhibition, Amplex Red oxidation assay; type: biochemical; conditions: 30 min preincubation at 37 °C, putrescine substrate
Method in brief: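 LOXL2 in 1.2 M urea, 50 mM sodium borate pH 8.2 was preincubated with compound (11-point curve) for 30 min at 37 °C; mofegiline/pargyline were added only for non-purified enzyme. Reaction mix held 2× KM putrescine (10 mM), 120 μM Amplex Red and 1.5 U/mL HRP. H2O2 fluorescence (ex 565/em 590 nm) was read over 30 min, and IC50 came from slopes.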

[2] = target: T1, LOXL2; assay: Jump dilution experiment, sustained inhibition of LOXL2; type: biochemical; conditions: jump dilution after 40 min at 37 °C with 10× or 30× IC50; vs non-inhibited controls;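 further: 30× IC50 used only where needed so inhibitor exceeds enzyme concentration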
Experimental: Jump Dilution experiment: The assay was developed using a 96 well format and the starting enzyme concentration was set 100 times higher than for the inhibition studies. […] After the incubation, the mixture was diluted 50× in assay buffer, followed by a further 2× dilution in Amplex Red-horseradish peroxidase-putrescine reaction mix (same as per the inhibition studies) prior to the fluorescent measurement. Results were expressed in % recovery of the signal after a specified time by comparison with non-inhibited controls.

[3] = test system: lysyl oxidase; assay: Target engagement: lysyl oxidase activity, ear slice assay; type: in vivo, Wistar rats
Experimental: The ears, collected right after sacrifice of the rats (treated or untreated with a LOX inhibitor), were snap frozen in dry ice for −80° C. storage. For the assay, 5×5 mm samples were cut (still half-thawed), embedded in agarose gel and cut in cross sections […] thick (vibratome). The thin sections were collected in ice cold PBS containing protease inhibitors, and allowed to rest in the bath for 2-3 hours, to allow soluble contaminants to diffuse away prior to the assay. For a 96 well plate format: three thin slices were collected, gently blotted dry on Kimwipe, and transferred to each well containing 100 μl of assay buffer (1.2 M urea, 50 mM sodium borate buffer, pH 8.2), for a 30 minute pre-incubation at 37° C. in presence of 1 μM mofegiline and 500 μM pargyline. BAPN (500 μM) had been added to all the “low control” wells. A minimum of three replicas were performed for each condition.
After pre-incubation, 100 μl of Amplex Red-horseradish peroxidase (HRP) mix (120 μM Amplex Red, 1.5 U/mL HRP, 20 mM putrescine) were added to all wells, and the plate was read at 37° C. every 2.5 minutes for 13 times, (544 nm excitation and 590 nm emission, on a BMG Clariostar, in orbital, top reading mode). The slope of the kinetic curves, subtracted by the values obtained in the low controls (in presence of BAPN), was considered a measure of the specific lysyl oxidase activity in the sample.
Young male Wistar rats were given a single oral dose (10 or 30 mg/kg) of Compounds 1 or 33 (Table 5 and 6 respectively) and the enzymatic activity was measured in tissues with a high basal activity at this age, in the ear (FIGS. 2a and b; Compound 1 and 33 respectively) and aorta (FIG. 3c; Compound 33 only). The responses were normalised to the activity measured in animals treated with saline (control).

[4] = target: Human recombinant SSAO/VAP-1 (Homo sapiens (Human), UniProt Q16853); assay: Inhibition of human recombinant SSAO/VAP-1; type: biochemical
Method in brief: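 Purified enzyme (residues 34-763, expressed in CHO Lec8 cells; 0.25 μg/mL in 0.1 M sodium phosphate pH 7.4) was preincubated with compound 30 min at 37 °C. An added mix held 600 μM benzylamine, 120 μM Amplex Red and 1.5 U/mL HRP. Fluorescence (ex 565/em 590 nm) was read every 2.5 min for 30 min at 37 °C, and IC50 was derived from kinetic slopes over 4-11-point curves.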

[5] = 30 min preincubation at 37 °C, benzylamine 600 μM, read-out: SSAO/VAP-1 Activity IC50

Chain of Human recombinant SSAO/VAP-1 (Q16853 34-763): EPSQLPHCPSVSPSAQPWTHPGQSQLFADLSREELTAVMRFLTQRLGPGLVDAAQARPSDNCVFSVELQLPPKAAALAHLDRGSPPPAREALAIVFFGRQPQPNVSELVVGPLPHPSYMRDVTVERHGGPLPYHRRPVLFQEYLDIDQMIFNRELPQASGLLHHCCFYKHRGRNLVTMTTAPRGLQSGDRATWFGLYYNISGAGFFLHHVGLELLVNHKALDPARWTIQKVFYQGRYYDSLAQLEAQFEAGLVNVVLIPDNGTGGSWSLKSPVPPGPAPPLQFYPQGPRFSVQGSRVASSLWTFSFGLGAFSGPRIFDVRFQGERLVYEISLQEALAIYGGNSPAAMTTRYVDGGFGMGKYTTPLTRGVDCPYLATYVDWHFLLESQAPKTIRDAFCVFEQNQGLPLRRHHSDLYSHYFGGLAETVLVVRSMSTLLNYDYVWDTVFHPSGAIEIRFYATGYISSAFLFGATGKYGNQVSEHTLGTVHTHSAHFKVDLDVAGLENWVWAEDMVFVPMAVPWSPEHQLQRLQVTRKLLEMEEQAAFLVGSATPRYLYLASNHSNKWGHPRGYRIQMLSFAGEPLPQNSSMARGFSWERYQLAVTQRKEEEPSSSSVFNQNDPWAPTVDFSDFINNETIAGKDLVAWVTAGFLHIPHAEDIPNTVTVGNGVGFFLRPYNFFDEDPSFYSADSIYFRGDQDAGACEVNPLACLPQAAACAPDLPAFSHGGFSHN
T1 sequence (Q9Y4K0 26-774): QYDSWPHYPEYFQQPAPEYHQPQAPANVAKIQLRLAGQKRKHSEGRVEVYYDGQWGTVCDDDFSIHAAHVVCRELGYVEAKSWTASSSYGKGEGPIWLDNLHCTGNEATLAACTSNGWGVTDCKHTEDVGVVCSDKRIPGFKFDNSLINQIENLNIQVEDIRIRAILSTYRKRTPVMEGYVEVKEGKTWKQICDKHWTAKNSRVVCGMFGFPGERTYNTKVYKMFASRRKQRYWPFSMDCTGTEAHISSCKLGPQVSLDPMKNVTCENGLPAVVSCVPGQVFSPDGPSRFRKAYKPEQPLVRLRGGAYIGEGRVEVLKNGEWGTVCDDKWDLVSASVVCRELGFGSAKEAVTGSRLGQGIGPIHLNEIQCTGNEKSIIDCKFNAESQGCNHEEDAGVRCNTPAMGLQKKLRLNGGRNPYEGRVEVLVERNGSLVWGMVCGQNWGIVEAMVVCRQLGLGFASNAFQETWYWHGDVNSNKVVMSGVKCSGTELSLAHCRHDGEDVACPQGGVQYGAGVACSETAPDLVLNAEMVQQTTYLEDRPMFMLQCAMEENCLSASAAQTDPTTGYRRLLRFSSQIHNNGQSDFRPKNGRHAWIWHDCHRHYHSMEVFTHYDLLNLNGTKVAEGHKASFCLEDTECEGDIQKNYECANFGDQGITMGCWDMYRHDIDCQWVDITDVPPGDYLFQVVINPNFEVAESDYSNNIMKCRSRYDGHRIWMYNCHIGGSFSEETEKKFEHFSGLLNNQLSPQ

Row | SMILES | IC50 [1] | LOXL2 - Recovery of activity. (%) [2] | LOX activity in rat ear ([3]; 24 hours after single oral dose at 10 and 30 mg/kg, vs saline control, hydrochloride) | IC50 [4, 5] | IC50 ([4]; second Table 6 (Example 38), read-out: Recombinant human SSAO (rhSSAO) inhibition (IC50)) | lysyl oxidase activity in rat tissue ([3]; single high (30 mg/kg) oral dose) | half-life of recovery of lysyl oxidase activity (ear) ([3]; single oral dose 30 mg/kg)
1 | NC/C=C(\F)CS(=O)(=O)c1ccccc1 [Compound 1, (Z)-3-fluoro-4-(phenylsulfonyl)but-2-en-1-amine hydrochloride] | < 10 µM | 9.5% | dose-dependent block; also recorded: dose dependent, sustained reduction | > 30 µM | > 100 µM | – | –
2 | NC/C=C(\F)CS(=O)(=O)c1cccc2cccnc12 [Compound 33, (Z)-3-fluoro-4-(quinolin-8-ylsulfonyl)but-2-en-1-amine dihydrochloride] | < 1 µM | 6.9% | – | > 10 µM | – | completely abolish | 48 to 72 h
